Source: patent US20140336187A1, “METHODS FOR TREATING LEISHMANIASIS” (HOWARD UNIVERSITY, priority 2011, published 2014)
“And” between values parts separate entries of the source, which are not always exact repeats. Equal entries are not always repeated. Where two headings read alike, the source gives them in different places.

Tests used:
L. donovani = assay: In vivo visceral leishmaniasis BALB/c mouse model: liver and spleen parasite burden (LDUs); parameters: species or system BALB/c mice; details: for LDUs (Liver): subcutaneous, 4 days from day 7; for LDUs (Liver) / LDUs (Spleen): 14 days post infection, n=2; for Parasite Suppression (%)--Liver (reduction in parasite burden) / Parasite Suppression (%)--Spleen (reduction in parasite burden) / increase in parasite burden (spleen): compared to untreated controls
Protocol: Balb/c mice 10-11 weeks old were infected with L. donovani inoculated subcutaneously (SC) at the base of the tail (maximum 0.2 ml) with 1×10^6 freshly harvested promastigotes. These represented a VL model which has been described previously (Yardley and Croft, 1999). After infection, mice were marked for individual identification and randomly allocated into groups of two. Seven days after infection, a mouse was sacrificed, and parasitic burden assessed based on microscopic enumeration of amastigotes (Leishman donovan bodies) against host cell nuclei on liver and spleen impression smears (Stauber et al., 1958). Blood was collected through cardiac puncture for use in all serum based assays.
Dosing began on the seventh day post-infection for 4 continuous days. […] Dosing was administered subcutaneously at the base of the tail.
It includes the different groups of mice and the concentrations of compounds used for the treatment of infections. A Representation of infections and treatments of BALB/c Mice is in Table 2. All mice were infected with 10^6 log phase promastigotes in PBS. In each group with different concentrations, there were two mice (n=2). […] The positive controls that were infected but were not treated with any drug except PBS, and the negative controls that were not infected with the parasites, but injected with only PBS.
The efficacy of compounds was assessed by microscopically determining the reduction in amastigotes burden Leishman donovan bodies (LDBs) within the liver and spleen. Impression smears were taken 14 days post infection (7 days after the start of treatment). Mice liver and spleen imprints were made by touching a freshly cut surface of the mice liver and spleen many times with a Poly-L-Lysine coated slide. The slides were air dried, fixed in “Diff Quick” fixative for 30 seconds, drained, stained with “Quick Diff” solution II for 30 seconds, drained, and then finally counterstaining with “Diff Quick” solution I for 30 seconds and then drained. Slides were rinsed in tap water to remove excess stain and rapidly dehydrated in absolute alcohol. Slides were examined by light microscopy, using ×1000 oil immersion. LDBs were determined by dividing the number of LDBs/number of cells nuclei x weight of organ in milligrams. This gave the number of “Leishman donovan units” (LDUs).
The purpose of the test was to evaluate splenic and liver parasite burden after treatment with selected compounds. This was done by making imprints and calculating the number of Leishman Donovan Units (LDUs) in cells. LDUs are calculated by counting the number of parasites per cell nuclei (number of amastigotes in cells÷number of cells) multiplied by the weight of the organ in milligrams. […] Effectiveness of compounds in the treatment of VL is expressed as LDU numbers and as percent increases or percent decrease in LDUs. Percent increase in LDU means that the number of parasites increased compared to the untreated controls and percent decrease means that the number of parasites decreased compared to the untreated controls.

[1] = tested on: L. donovani promastigotes; assay: Dose and time-dependent inhibitory effect on L. donovani promastigotes (2, 4, 6, 24 hours exposure); assay type: cell-based, Leishmania donovani
Protocol: The Leishmanicidal properties of fifteen naphthoquinone compounds (FIG. 1) on L. donovani promastigotes proliferation were assessed by the resazurin cell viability assay. Promastigotes from axenic culture were harvested during the exponential phase of growth (at least 5-day old culture), incubated at a concentration of 2×10^5 cells/200 μl with and without dilutions of compounds in 96-well microtitre plates. Dilutions of compounds covering 0.03 μM to 44 μM were prepared. […] 20 μl Alamar Blue (12.5 mg resazurin dissolved in 100 ml distilled water (Sigma #R7017)) (Mikes and Steverding, 2000) were added to each well and plates were incubated for another 2 hrs. […] Decrease in fluorescence (inhibition), were expressed as percentage of the fluorescence of control cultures and were plotted against the concentrations of compounds. The IC50 values were calculated from the sigmoidal inhibition curves.
A time and dose-dependent inhibitory effect of all 15 imido-substituted naphthoquinone compounds was assessed on their activity on promastigotes of L. donovani. Promastigotes were plated in 96-well plates and incubated in different concentrations of each compound (0.03 to 44 μM), incubated for two hours and viabilities assayed by the resazurin assay. A two hour exposure was assessed by calculation of IC50 values of each compound. Values are means±S.E. (Standard Error).
(§1) A time and dose-dependent inhibitory effect of all 15 imido-substituted naphthoquinone compounds was assessed on their activity on promastigotes of L. donovani. Promastigotes were plated in 96-well plates and incubated in different concentrations of each compound (0.03 to 44 μM), incubated for four hours and cell viabilities assayed by the resazurin assay. A four hour exposure was assessed by calculation of IC50 values of each compound. Values are means±S.E. (Standard Error).
Promastigotes were plated in 96-well plates and incubated in different concentrations of each compound (0.03 to 44 μM), incubated for six hours and cell viabilities assayed by the resazurin assay. A six hour exposure was assessed by calculation of IC50 values of each compound. Values are means±S.E. (Standard error).
as §1, with “incubated for twenty four hours” for “incubated for four hours”, “assay. A twenty four hour” for “assay. A four hour”

[2] = 20 mg/kg total dose, listed as Amphotericin B
[3] = Leishmania donovani, 2 h, read-out: Antileishmanial Activity IC50 (μM) 2 hours
[4] = Leishmania donovani, 4 h, read-out: Antileishmanial Activity IC50 (μM) 4 hours
[5] = Leishmania donovani, 6 h, read-out: Antileishmanial Activity IC50 (μM) 6 hours
[6] = Leishmania donovani, 24 h, read-out: Antileishmanial Activity IC50 (μM) 24 hours

| Structure (SMILES) | LDUs (Liver) (L. donovani; 20 mg/kg total dose) | LDUs (Spleen) (L. donovani; 20 mg/kg total dose) | Parasite Suppression (%)--Liver (reduction in parasite burden) (L. donovani; 20 mg/kg) | Parasite Suppression (%)--Spleen (reduction in parasite burden) (L. donovani; 20 mg/kg) | LDUs (Liver) (L. donovani; 5 mg/kg total dose) | LDUs (Spleen) (L. donovani; 5 mg/kg total dose) | Parasite Suppression (%)--Liver (reduction in parasite burden) (L. donovani; 5 mg/kg) | Parasite Suppression (%)--Spleen (reduction in parasite burden) (L. donovani; 5 mg/kg) | LDUs (Liver) (L. donovani; 50 mg/kg total dose) | LDUs (Spleen) (L. donovani; 50 mg/kg total dose) | Parasite Suppression (%)--Liver (reduction in parasite burden) (L. donovani; 50 mg/kg) | IC50 [1, 3] | IC50 [1, 4] | IC50 [1, 5] | IC50 [1, 6] | Parasite Suppression (%)--Spleen (reduction in parasite burden) (L. donovani; 50 mg/kg) | other results |
| --- | --- | --- | --- | --- | --- | --- | --- | --- | --- | --- | --- | --- | --- | --- | --- | --- | --- |
| C[C@@H]1[C@H](O)[C@@H](C)/C=C/C=C/C=C/C=C/C=C/C=C/C=C/[C@H](O[C@@H]2O[C@H](C)[C@@H](O)[C@H](N)[C@@H]2O)C[C@@H]2O[C@](O)(C[C@@H](O)C[C@@H](O)[C@H](O)CC[C@@H](O)C[C@@H](O)CC(=O)O[C@H]1C)C[C@H](O)[C@H]2C(=O)O [Am. B., Amphotericin B, reference compound] | 5681.0 ± 1868 LDUs | 402.3 ± 30 LDUs | 33.47% | 35.74% |  |  |  |  |  |  |  |  |  |  |  |  | LDUs (Liver) (L. donovani; [2]): 5823.8 LDUs; LDUs (Spleen) (L. donovani; [2]): 402.0±30 LDUs; Parasite Suppression (%)--Spleen (reduction in parasite burden) (L. donovani; 20 mg/kg, listed as Amphotericin B): 33.0%; IC50 ([1]; promastigotes, 6 hours exposure, means ± S.E., read-out: Antileishmanial Activity IC50 (μM) 6 hours): 52 ± 12.2 µM; IC50 ([1]; promastigotes, 24 hours exposure, means ± S.E., read-out: Antileishmanial Activity IC50 (μM) 24 hours): 4.1 ± 0.4 µM; IC50 ([1]; read-out: Antileishmanial Activity IC50 (μM) 2 hours, promastigotes, 2 hours exposure, means ± S.E.): 3.09 ± 2 µM; IC50 ([1]; read-out: Antileishmanial Activity IC50 (μM) 4 hours, promastigotes, 4 hours exposure, means ± S.E.): 4.49 ± 0.3 µM |
| NC1=C(Br)C(=O)c2ccccc2C1=O [IMD8, 2-Amino-3-bromo-1,4-naphthoquinone] | 3099.9±2197 LDUs | 297.8±9.5 LDUs | 44.34% | 52.44% | 4752.5±293 LDUs | 585.3±222 LDUs | 56.66% and 55.66% | 6.51% | 1869.0±420 LDUs | 391.5±96 LDUs | 81.89% | 0.021 ± 0.001 µM | 64.2 ± 11.8 µM | 23100 µM | 12 ± 0.8 µM |  |  |
| O=C1C(Cl)=C(N(C(=O)c2cccc(Cl)c2)C(=O)c2cccc(Cl)c2)C(=O)c2ccccc21 [IMDNQ4, 3-Chloro-N-(3-chlorobenzoyl)-N-(3-chloro-1,4-dioxo-1,4-dihydronaphthalen-2-yl)-benzamide] | 4266.0±6033 LDUs | 770.0±608 LDUs | 50.04% | 0% | 5823.8±3378 LDUs | 433.3±188 LDUs | 31.79% | 30.79% | 1003.8±1420 LDUs | 780.3±96 LDUs | 88.24% | 3.52 ± 3.6 µM | 21.5 ± 9.6 µM | 4.11 ± 6.3 µM | 3.96 ± 1.3 µM | 0% | increase in parasite burden (spleen) (L. donovani; 20 mg/kg): 18.7%; increase in parasite burden (spleen) (L. donovani; 50 mg/kg): 19.8% |
| CCCC(=O)N(C(=O)CCC)C1=C(Cl)C(=O)c2ccccc2C1=O [IMDNQ15] | 2598.5±89 LDUs and 2598.5 ± 889 LDUs | 363.3±210 LDUs | 69.57% | 41.97% | 2267.5±191 LDUs | 315.0±129 LDUs | 73.44% | 49.68% | 4618.0 ± 1785 LDUs | 213.0±115 LDUs | 45.92% | 8.6 ± 0.01 µM |  | 116.35 ± 0.07 µM | 3.96 µM | 65.97% |  |
